In ChEMBL document CHEMBL1777737, “Solid phase synthesis of tariquidar-related modulators of ABC transporters preferring breast cancer resistance protein (ABCG2)” (Bioorg Med Chem Lett, 2011):

Tests used:
Type in all cases: cell-based
[1] = biological target: T1, Broad substrate specificity ATP-binding cassette transporter ABCG2 (Homo sapiens, UniProt Q9UNQ0); assay: Inhibition of ABCG2 expressed in human MCF7/Topo cells by Hoechst microplate assay
T1 sequence (Q9UNQ0 whole entry): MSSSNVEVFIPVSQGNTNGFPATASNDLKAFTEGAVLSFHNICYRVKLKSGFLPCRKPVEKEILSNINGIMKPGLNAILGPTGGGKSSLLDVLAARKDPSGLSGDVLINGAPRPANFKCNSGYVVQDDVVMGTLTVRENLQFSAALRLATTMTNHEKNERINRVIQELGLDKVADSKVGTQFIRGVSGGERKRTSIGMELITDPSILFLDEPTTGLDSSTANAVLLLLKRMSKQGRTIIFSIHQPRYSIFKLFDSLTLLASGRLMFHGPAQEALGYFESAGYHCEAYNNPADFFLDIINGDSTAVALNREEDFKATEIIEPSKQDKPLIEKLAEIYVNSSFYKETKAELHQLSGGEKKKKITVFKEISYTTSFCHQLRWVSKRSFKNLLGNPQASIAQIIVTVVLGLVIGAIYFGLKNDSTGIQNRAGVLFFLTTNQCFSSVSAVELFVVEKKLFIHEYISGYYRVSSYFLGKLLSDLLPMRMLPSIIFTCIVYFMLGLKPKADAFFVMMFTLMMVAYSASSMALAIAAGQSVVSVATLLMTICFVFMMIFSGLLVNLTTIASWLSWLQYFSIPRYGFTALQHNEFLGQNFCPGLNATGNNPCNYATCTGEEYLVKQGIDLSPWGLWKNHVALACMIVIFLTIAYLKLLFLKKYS

[2] = biological target: ATP-dependent translocase ABCB1 (Homo sapiens, UniProt P08183); assay: Inhibition of ABCB1 expressed in Kb-V1 cells after 10 mins by calcein-AM assay
ATP-dependent translocase ABCB1, sequence (P08183 whole entry): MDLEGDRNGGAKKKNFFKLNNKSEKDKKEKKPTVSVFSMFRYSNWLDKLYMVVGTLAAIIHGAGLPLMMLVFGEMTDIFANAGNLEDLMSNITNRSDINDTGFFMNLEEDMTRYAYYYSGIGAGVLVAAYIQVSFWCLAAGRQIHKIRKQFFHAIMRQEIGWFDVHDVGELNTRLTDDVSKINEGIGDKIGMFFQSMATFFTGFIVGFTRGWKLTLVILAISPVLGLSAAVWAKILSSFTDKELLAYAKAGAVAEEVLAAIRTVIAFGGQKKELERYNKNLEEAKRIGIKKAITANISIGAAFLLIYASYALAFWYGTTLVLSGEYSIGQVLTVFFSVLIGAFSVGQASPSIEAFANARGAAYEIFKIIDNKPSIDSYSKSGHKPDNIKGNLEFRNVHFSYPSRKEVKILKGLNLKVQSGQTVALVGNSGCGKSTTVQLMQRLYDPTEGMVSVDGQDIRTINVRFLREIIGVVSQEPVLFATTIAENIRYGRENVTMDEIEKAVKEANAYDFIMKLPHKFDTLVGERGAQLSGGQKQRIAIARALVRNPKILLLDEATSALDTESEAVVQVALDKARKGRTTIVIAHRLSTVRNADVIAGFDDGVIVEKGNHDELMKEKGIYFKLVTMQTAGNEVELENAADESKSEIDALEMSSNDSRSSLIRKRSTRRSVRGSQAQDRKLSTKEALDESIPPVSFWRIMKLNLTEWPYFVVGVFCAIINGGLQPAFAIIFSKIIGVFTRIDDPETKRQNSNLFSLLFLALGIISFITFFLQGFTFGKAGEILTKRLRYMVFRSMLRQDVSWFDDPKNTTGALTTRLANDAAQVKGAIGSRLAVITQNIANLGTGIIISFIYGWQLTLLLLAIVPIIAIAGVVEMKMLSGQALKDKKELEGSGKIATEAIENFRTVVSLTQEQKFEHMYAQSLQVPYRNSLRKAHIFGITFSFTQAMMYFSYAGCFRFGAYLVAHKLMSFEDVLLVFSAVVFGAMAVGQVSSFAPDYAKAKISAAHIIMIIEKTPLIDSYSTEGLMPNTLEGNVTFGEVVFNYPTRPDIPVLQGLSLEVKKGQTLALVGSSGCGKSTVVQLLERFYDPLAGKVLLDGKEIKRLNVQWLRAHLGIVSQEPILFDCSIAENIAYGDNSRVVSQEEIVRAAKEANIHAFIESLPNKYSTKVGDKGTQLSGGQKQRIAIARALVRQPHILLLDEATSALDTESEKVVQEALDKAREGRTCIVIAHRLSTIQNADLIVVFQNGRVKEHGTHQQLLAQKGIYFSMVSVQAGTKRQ

ABCG2 = biological target: T2, ABCG2 (Homo sapiens, UniProt Q9UNQ0); assay: Inhibition of ABCG2 expressed in human MCF7/Topo cells assessed as maximal inhibitory effect at IC50 concentration by Hoechst microplate assay; conditions: MCF7/Topo cells expressing ABCG2, probe Hoechst dye, read-out: INH
T2 sequence (Q9UNQ0 whole entry): T1 sequence (Q9UNQ0 whole entry)

Compound | IC50 [1] [µM] | IC50 [2] [µM] | Emax (ABCG2) [%]
COCCOCCOCCOc1cc2c(cc1OC)CN(CCc1ccc(NC(=O)c3ccc(C(=O)O)c(NC(=O)c4ccc5ncccc5c4)c3)cc1)CC2 | > 50 | > 50 | –
COCCOCCOCCOc1cc2c(cc1OC)CCN(CCc1ccc(NC(=O)c3ccc(C(=O)OC)c(NC(=O)c4ccc5ccccc5n4)c3)cc1)C2 | 0.13 | > 50 | –
COCCOCCOCCOc1cc2c(cc1OC)CCN(CCc1ccc(NC(=O)c3ccc(C(=O)OC)c(NC(=O)c4ccc5ncccc5c4)c3)cc1)C2 | 0.508 | > 50 | 61
COc1cc2c(cc1OC)CN(CCc1ccc(NC(=O)c3ccc(C(=O)O)c(NC(=O)c4ccc5ncccc5c4)c3)cc1)CC2 | > 100 | > 1 | –
COCCOCCOCCOc1cc2c(cc1OC)CN(CCc1ccc(NC(=O)c3ccc(C(=O)O)c(NC(=O)c4ccc5ccccc5n4)c3)cc1)CC2 | > 50 | > 100 | –
COCCOCCOCCOc1cc2c(cc1OC)CN(CCc1ccc(NC(=O)c3ccc(C(=O)OC)c(NC(=O)c4ccc5ccccc5n4)c3)cc1)CC2 | 0.183 | > 50 | –
COCCOCCOCCOc1cc2c(cc1OC)CCN(CCc1ccc(NC(=O)c3ccc(C(=O)O)c(NC(=O)c4ccc5ccccc5n4)c3)cc1)C2 | 6.2 | > 100 | –
COc1cc2c(cc1OC)CN(CCc1ccc(NC(=O)c3ccc(C(=O)O)c(NC(=O)c4ccc5ccccc5n4)c3)cc1)CC2 | > 5 | > 50 | –
COC(=O)c1ccc(C(=O)Nc2ccc(CCN3CCc4cc(OC)c(OC)cc4C3)cc2)cc1NC(=O)c1ccc2ccccc2n1 | 0.059 | > 29 | –
COC(=O)c1ccc(C(=O)Nc2ccc(CCN3CCc4cc(OC)c(OC)cc4C3)cc2)cc1NC(=O)c1ccc2ncccc2c1 | 0.172 | > 10 | 55
COCCOCCOCCOc1cc2c(cc1OC)CCN(CCc1ccc(NC(=O)c3ccc(C(=O)O)c(NC(=O)c4ccc5ncccc5c4)c3)cc1)C2 | > 50 | > 50 | –
COCCOCCOCCOc1cc2c(cc1OC)CN(CCc1ccc(NC(=O)c3ccc(C(=O)OC)c(NC(=O)c4ccc5ncccc5c4)c3)cc1)CC2 | 0.39 | > 100 | 41
